Reference: US20160257697A1, “THIOPHENE-SUBSTITUTED TETRACYCLIC COMPOUNDS AND METHODS OFUSE THEREOF FOR THE TREATMENT OF VIRAL DISEASES” (priority 2013, published 2016)
Like-named read-outs stand apart in the source and are kept apart here.

Columns and labels:
Test in all cases: microbe, parasite or virus in culture
Format in all cases: cell-based, Hepatitis C virus (HCV)
HCV replicon 1B = conditions: Replicon Assay B
HCV replicon 1AQ30D = conditions: Replicon Assay B
HCV replicon 1AY93H = conditions: Replicon Assay A
Method in brief: (§1)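 Cells seeded 2000/well + compound; 0.5% DMSO, 5% FBS; harvest day 3, lyse. Multiplex TaqMan RT-PCR for replicon (Neo probe) and cyclophilin RNA; amounts from Ct vs log(ng) linear regression of replicon total RNA standards.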

HCV replicon 1A = conditions: Replicon Assay A
Method in brief: as §1

HCV replicon 2B = conditions: Replicon Assay A
Method in brief: as §1

[1] = read-out: 1A Q30D IC50, HCV replicon 1A Q30D
[2] = read-out: 1A Y93H IC50, HCV replicon 1A Y93H
[3] = read-out: 2B IC50, HCV replicon 2B
[4] = Hepatitis C virus, HCV replicon 1B
[5] = Hepatitis C virus, read-out: 1A Q30D IC50, HCV replicon 1A Q30D
[6] = Hepatitis C virus, read-out: 1A Q30D IC50 (nM), replicon 1AQ30D
[7] = Hepatitis C virus, read-out: 1A Y93H IC50 (nM), replicon 1AY93H
[8] = Hepatitis C virus, read-out: 2B IC50 (nM), replicon 2B
[9] = read-out: 1A Q30D IC50, replicon 1AQ30D
[10] = read-out: 1A Y93H IC50, replicon 1AY93H

COC(=O)N[C@H](C(=O)N1CCC[C@H]1c1ncc(-c2cc(F)c3c(c2)OC(c2cc4c(s2)CCC4)n2c-3cc3cc(-c4cnc([C@@H]5C[C@H]6C[C@H]6N5C(=O)[C@@H](NC(=O)OC)C5CCOCC5)[nH]4)ccc32)[nH]1)C(C)C (single isomer, unassigned) [Compound 542]
IC50 (HCV replicon 1B; HCV replicon 1B): 3.71 pM
IC50 (HCV replicon 1AQ30D; [1]): 0.162 nM
IC50 (HCV replicon 1AY93H; [2]): 0.00855 nM
IC50 (HCV replicon 1A; HCV replicon 1A): 3.42 pM
IC50 (HCV replicon 2B; [3]): 0.0335 nM

COC(=O)N[C@H](C(=O)N1CCC[C@H]1c1ncc(-c2ccc3c(c2)OC(c2cc4ccccc4s2)n2c-3cc3cc(-c4cnc([C@@H]5C[C@@H](F)CN5C(=O)[C@@H](NC(=O)OC)C5CCOCC5)[nH]4)ccc32)[nH]1)C1CCOCC1 (single isomer, unassigned) [Compound 813]
IC50 (HCV replicon 1B; [4]): 87 pM
IC50 (HCV replicon 1AQ30D; [5]): 1.4 nM
IC50 (HCV replicon 1AY93H; [2]): 0.038 nM
IC50 (HCV replicon 1A; HCV replicon 1A): 43 pM
IC50 (HCV replicon 2B; [3]): 0.018 nM

COC(=O)NC(C(=O)N1CCC[C@H]1c1ncc(-c2cc(F)c3c(c2)OC(c2ccc(C4CC4)s2)n2c-3cc3cc(-c4cnc([C@@H]5CCCN5C(=O)[C@@H](NC(=O)OC)C(C)C)[nH]4)ccc32)[nH]1)C1C[C@@H](C)O[C@@H](C)C1 (stereo partly drawn) [Compound 188]
IC50 (HCV replicon 1B; Hepatitis C virus, replicon 1B): 1.2 pM
IC50 (HCV replicon 1AQ30D; [6]): 0.02 nM
IC50 (HCV replicon 1AY93H; [7]): 0.002 nM
IC50 (HCV replicon 1A; Hepatitis C virus, replicon 1A): 1.7 pM
IC50 (HCV replicon 2B; [8]): 0.005 nM

COC(=O)N[C@H](C(=O)N1CCC[C@H]1c1ncc(-c2cc(F)c3c(c2)OC(c2ccc(C4CC4)s2)n2c-3cc3cc(-c4cnc([C@@H]5CCCN5C(=O)[C@@H](NC(=O)OC)C5CCOCC5)[nH]4)ccc32)[nH]1)C1CCOCC1 (single isomer, unassigned) [Compound 280]
IC50 (HCV replicon 1B; replicon 1B): 2.6 pM
IC50 (HCV replicon 1AQ30D; [9]): 0.005 nM
IC50 (HCV replicon 1AY93H; [10]): 0.003 nM
IC50 (HCV replicon 1A; replicon 1A): 2.1 pM
IC50 (HCV replicon 2B; read-out: 2B IC50, replicon 2B): 0.003 nM

COC(=O)NC(C(=O)N1CCC[C@H]1c1ncc(-c2ccc3c(c2)cc2n3C(c3ccc(C4CCCC4)s3)Oc3cc(-c4cnc([C@@H]5CCCN5C(=O)[C@@H](NC(=O)OC)C(C)C)[nH]4)cc(F)c3-2)[nH]1)C1C[C@@H](C)O[C@@H](C)C1 (single isomer, unassigned) [Compound 658]
IC50 (HCV replicon 1B; HCV replicon 1B): 8.4 pM
IC50 (HCV replicon 1AQ30D; [1]): 0.0643 nM
IC50 (HCV replicon 1AY93H; [2]): 0.0089 nM
IC50 (HCV replicon 1A; HCV replicon 1A): 3.2 pM
IC50 (HCV replicon 2B; [3]): 0.0098 nM

COC(=O)N[C@H](C(=O)N1CCC[C@H]1c1nc(-c2cc(F)c3c(c2)OC(c2ccc(C4CC4)s2)n2c-3cc3cc(-c4c[nH]c([C@@H]5C[C@H]6C[C@H]6N5C(=O)[C@@H](NC(=O)OC)C(C)C)n4)ccc32)c[nH]1)C(C)C (single isomer, unassigned) [Compound 721]
IC50 (HCV replicon 1B; [4]): 1.5 pM
IC50 (HCV replicon 1AQ30D; [5]): 0.17 nM
IC50 (HCV replicon 1AY93H; [2]): 0.0045 nM
IC50 (HCV replicon 1A; HCV replicon 1A): 1.5 pM
IC50 (HCV replicon 2B; [3]): 0.05 nM

COC(=O)N[C@H](C(=O)N1CCC[C@@H]1c1ncc(-c2cc(F)c3c(c2)OC(c2ccc(C(C)C)s2)n2c-3cc3cc(-c4c[nH]c([C@@H]5CCCN5C(=O)[C@H](NC(=O)OC)C5C[C@@H](C)O[C@@H](C)C5)n4)ccc32)[nH]1)C(C)C (stereo partly drawn) [Compound 241]
IC50 (HCV replicon 1B; replicon 1B): 2.4 pM
IC50 (HCV replicon 1AQ30D; [9]): 0.033 nM
IC50 (HCV replicon 1AY93H; [10]): 0.005 nM
IC50 (HCV replicon 1A; replicon 1A): 1.6 pM
IC50 (HCV replicon 2B; read-out: 2B IC50, replicon 2B): 0.016 nM

COC(=O)NC(C(=O)N1CCC[C@H]1c1ncc(-c2ccc3c(c2)cc2n3C(c3ccc(CC4CC4)s3)Oc3cc(-c4cnc([C@@H]5CCCN5C(=O)[C@@H](NC(=O)OC)C(C)C)[nH]4)cc(F)c3-2)[nH]1)C1CCOC(C)(C)C1 (single isomer, unassigned) [Compound 408]
IC50 (HCV replicon 1B; HCV replicon 1B): 1.9 pM
IC50 (HCV replicon 1AQ30D; [1]): 0.0261 nM
IC50 (HCV replicon 1AY93H; [2]): 0.004 nM
IC50 (HCV replicon 1A; HCV replicon 1A): 3.5 pM
IC50 (HCV replicon 2B; [3]): 0.005 nM

COC(=O)NC(C(=O)N1CCC[C@H]1c1ncc(-c2ccc3c(c2)cc2n3C(c3ccc(C4CC4)s3)Oc3cc(-c4cnc([C@@H]5CCCN5C(=O)C(NC(=O)OC)C(C)(C)F)[nH]4)cc(F)c3-2)[nH]1)C1C[C@@H](C)O[C@@H](C)C1 (single isomer, unassigned) [Compound 379]
IC50 (HCV replicon 1B; Hepatitis C virus, replicon 1B): 1.1 pM
IC50 (HCV replicon 1AQ30D; [6]): 0.798 nM
IC50 (HCV replicon 1AY93H; [7]): 0.0803 nM
IC50 (HCV replicon 1A; Hepatitis C virus, replicon 1A): 2.2 pM
IC50 (HCV replicon 2B; [8]): 0.178 nM
